Data set [1] is described as follows: Pharmacokinetic profile, rat assay (IV). The settings on record: plasma. It is filed as in vivo. The protocol: The pharmacokinetic profiles of compounds are determined by measuring the compound concentration in plasma by LC/MS/MS following a single intravenous or peroral administration of the compounds at a dose of 1 or 3 mg/kg individually or in a cassette of up to 5 compounds. The concentrations are described as the mean plasma concentrations at each time point from three animals. Intravenous dose formulation is administered as a single bolus dose through the tail vein. Oral dose formulation is administered to animals by an oral gavage needle. In both cases the dose volume is 5.0 mL/kg. Blood is collected from rats using a jugular vein catheter and from anesthetized mice through a capillary guided into the retro-orbital plexus. The collected blood is then centrifuged to obtain plasma and the compounds extracted into methanol prior to determining the compound concentration by LC/MS/MS.
The pharmacokinetic profiles of selected compounds of the invention were compared directly with their primary alcohol analogues, Compounds A and B below, in the rat assay (IV).

The next data set deals with S. pneumoniae ATCC6301. Briefly: Mouse survival model (lung infection). In kind it is in vivo. The settings on record: CD-1 mice. The procedure: Anaesthetised female CD-1 mice (18-22 g) were inoculated intranasally with approximately 10^6 cfus of S. pneumoniae ATCC6301 prepared from a fresh overnight culture by placing 50 μl of inoculum on the nares and allowing the mice to inhale. Compounds are administered as indicated at 24, 48 and 72 hours post inoculation and the mice monitored for survival for seven or nine days after infection. […] Similarly, when Compound 17 was dosed IV at 30 mg/kg 90% of mice survived at day seven.

The nature of the next data set: Microsomal stability. As to conditions: pH 7.4; mouse liver microsomes; major metabolite the parent alcohol. It is filed as in vitro ADME. The protocol:
In a 96 well polypropylene plate, 10 μM compound is prepared in 100 mM KPO4 buffer pH 7.4, 5 mM MgCl2, 25 μg/ml Alamethicin, 1 mg/ml (protein) liver microsomes (mouse) and a final DMSO concentration of 0.1% in 100 μl in duplicate. The plate is pre-incubated at 37° C. for 10 minutes after which reactions are initiated by the addition of NADPH and UDPGA to a final concentration of 1 mM and 5 mM respectively. Reactions are incubated at 37° C. and terminated by the addition of 100 μl DMSO at 0, 10, 30 and 60 minutes. Samples of 100 μl are withdrawn and added to 50 μl ice cold methanol and mixed on an orbital shaker for 10 minutes to precipitate the proteins. The samples are then centrifuged at 4000 rpm and 10° C. for 30 minutes and supernatants are analysed by LCMS. The T1/2 and clearance are determined by linear regression from the peak areas.

A further data set can be described thus: Thermodynamic solubility. In kind it is physicochemical. The settings on record: aqueous buffer, thermodynamic from solid; pH 7.4, HEPES buffer, 24 hours shaking at room temperature. The protocol: In a 1.5 mL eppendorf tube, approximately 2 mg of compound is resuspended in a volume of HEPES buffer pH 7.4 to achieve a 5 mg/mL suspension. The tubes are placed on an orbital shaker at room temperature and following shaking for 24 hours the tubes are spun at 1400 rpm in a bench top centrifuge to pellet the undissolved compound. Duplicate 150 μL aliquots of the supernatant are then transferred into two ultracentrifuge tubes and spun at 357440 g for 4 hours at 20° C. 50 μL of the supernatant from each tube is then diluted with 100 μL of methanol and analysed by HPLC or LCMS to determine the concentration of compound in solution by comparing to a standard curve. The thermodynamic solubility of representative Compounds 19, 123, 134 and 153 were tested and determined to be highly soluble, at ≧2 mg/mL, at pH 7.4.

A further data set concerns S. pyogenes (ATCC 51339). Briefly: Antibacterial activity MIC, S. pyogenes. It is filed as cell-based. As to conditions: Streptococcus pyogenes, ATCC51339.
A further data set deals with S. aureus (ATCC 29213). Briefly: Antibacterial activity MIC, S. aureus. It is filed as cell-based. As to conditions: Staphylococcus aureus, ATCC29213.
The test system of data set [2] is H. influenzae (ATCC 49247). The data set is described as follows: Antibacterial activity MIC, H. influenzae. In kind it is cell-based. The settings on record: Haemophilus influenzae, ATCC49247.

Converted amounts (≈) assume the structure as drawn.

By AUC is commonly meant concentration integrated over time. The low end stands for low exposure, the high end for high exposure. For orientation: clearance means the volume of plasma or blood freed of the substance per unit of time. The low end stands for inefficient removal, the high end for efficient removal. A word on the half-life: it is how long it takes for the measured level to halve. By solubility (thermodynamic) is commonly meant the concentration in solution at equilibrium with solid.

In data set [1] (dose 1 mg/kg), `CCNC(=O)Nc1nc2cc(-c3cnc(C(C)(C)O)nc3)cc(-c3ccccn3)c2s1` [Compound 1, 1-ethyl-3-[5-[2-(1-hydroxy-1-methyl-ethyl)pyrimidin-5-yl]-7-(2-pyridyl)-1,3-benzothiazol-2-yl]urea] had an exposure (AUC) of 3100 ng·h/mL, a clearance of 4.3 mL/min/kg and a half-life of 3.38 h. This molecule returned a mice surviving with S. pneumoniae ATCC6301 (dosed IV at 10 mg/kg, at seven or nine days) of 80%.
As for `CCNC(=O)Nc1nc2cc(-c3cnc(C(C)O)nc3)cc(-c3ccccn3)c2s1` (stereo not shown) [Compound 17, 1-ethyl-3-[5-[2-(1-hydroxyethyl)pyrimidin-5-yl]-7-(2-pyridyl)-1,3-benzothiazol-2-yl]urea], in data set [1] (dose 3 mg/kg), the AUC was determined as 4000 ng·h/mL, the clearance came to 12 mL/min/kg and the half-life stood at 1.78 h. In the data set with S. pneumoniae ATCC6301 (dosed IV at 30 mg/kg, at day seven), this molecule returned a mice survived of 90%.
Take `CCNC(=O)Nc1nc2cc(-c3cnc(C(C)OC(=O)CCC(=O)O)nc3)cc(-c3ccccn3)c2s1` (stereo not shown) [Compound 19, 4-[1-[5-[2-(ethylcarbamoylamino)-7-(2-pyridyl)-1,3-benzothiazol-5-yl]pyrimidin-2-yl]ethoxy]-4-oxo-butanoic acid]: the half-life at 10 μM in “Microsomal stability” was below 0.333 h. In “Thermodynamic solubility”, this molecule gave a thermodynamic solubility at 24 h of at least 2000 µg/mL.
In data set [1] (dose 1 mg/kg), `CCNC(=O)Nc1nc2cc(-c3ccc(C(C)(C)O)nc3)cc(-c3ccccn3)c2s1` [Compound 27, 1-ethyl-3-[5-[6-(1-hydroxy-1-methyl-ethyl)-3-pyridyl]-7-(2-pyridyl)-1,3-benzothiazol-2-yl]urea] yielded an AUC of 1130 ng·h/mL, a clearance of 13 mL/min/kg and a half-life of 2.63 h.
As for `CCNC(=O)Nc1nc2cc(-c3cnc(C(C)(C)O)nc3)cc(-c3nccc(N4CCN(CC)CC4)n3)c2s1` [Compound 79, 1-ethyl-3-[7-[4-(4-ethylpiperazin-1-yl)pyrimidin-2-yl]-5-[2-(1-hydroxy-1-methyl-ethyl)pyrimidin-5-yl]-1,3-benzothiazol-2-yl]urea], the MIC against S. pyogenes (ATCC 51339) and in the data set on S. aureus (ATCC 29213) was 2 µg/mL (≈ 3.65 µM) each time.
Regarding `CCNC(=O)Nc1nc2cc(-c3cnc(N4CCC(C)(C(=O)O)CC4)nc3)cc(-c3ccc(C(C)(C)O)cn3)c2s1` [Compound 99, 1-[5-[2-(ethylcarbamoylamino)-7-[5-(1-hydroxy-1-methyl-ethyl)-2-pyridyl]-1,3-benzothiazol-5-yl]pyrimidin-2-yl]-4-methyl-piperidine-4-carboxylic acid], the MIC is at most 1 µg/mL against S. pyogenes (ATCC 51339), at most 2 µg/mL in data set [2] and 2 µg/mL (≈ 3.47 µM) against S. aureus (ATCC 29213).
Take `CCNC(=O)Nc1nc2cc(-c3cnc(C4(OC(=O)CCC(=O)O)COC4)nc3)cc(-c3ccccn3)c2s1` [Compound 123, 4-[3-[5-[2-(ethylcarbamoylamino)-7-(2-pyridyl)-1,3-benzothiazol-5-yl]pyrimidin-2-yl]oxetan-3-yl]oxy-4-oxo-butanoic acid]: the half-life at 10 μM in “Microsomal stability” was below 0.333 h. In “Thermodynamic solubility”, the thermodynamic solubility at 24 h is at least 2000 µg/mL.
Take `CCNC(=O)Nc1nc2cc(-c3cnc([C@H](C)OC(=O)CCC(=O)O)nc3)cc(-c3ccccn3)c2s1` [Compound 133, 4-[(1S)-1-[5-[2-(ethylcarbamoylamino)-7-(2-pyridyl)-1,3-benzothiazol-5-yl]pyrimidin-2-yl]ethoxy]-4-oxo-butanoic acid]: the half-life at 10 μM in “Microsomal stability” is below 0.333 h.
Take `CCNC(=O)Nc1nc2cc(-c3cnc([C@@H](C)OC(=O)CCC(=O)O)nc3)cc(-c3ccccn3)c2s1` [Compound 134, 4-[(1R)-1-[5-[2-(ethylcarbamoylamino)-7-(2-pyridyl)-1,3-benzothiazol-5-yl]pyrimidin-2-yl]ethoxy]-4-oxo-butanoic acid]: the half-life at 10 μM in “Microsomal stability” was below 0.333 h. Besides, in “Thermodynamic solubility”, the solubility (thermodynamic) at 24 h was at least 2000 µg/mL.
Turning to `CCNC(=O)Nc1nc2cc(-c3cnc([C@H](C)OP(=O)(O)O)nc3)cc(-c3ccccn3)c2s1` [Compound 153, [(1S)-1-[5-[2-(ethylcarbamoylamino)-7-(2-pyridyl)-1,3-benzothiazol-5-yl]pyrimidin-2-yl]ethyl]dihydrogen phosphate], the solubility (thermodynamic) at 24 h in “Thermodynamic solubility” is at least 2000 µg/mL.
Turning to `CCNC(=O)Nc1nc2cc(-c3cnc(CO)nc3)cc(-c3ccccn3)c2s1` [Compound A, 1-Ethyl-3-[5-[2-(hydroxymethyl)pyrimidin-5-yl]-7-(2-pyridyl)-1,3-benzothiazol-2-yl]urea, reference compound], in data set [1] (dose 3 mg/kg), the AUC stood at 2000 ng·h/mL, the clearance turned out to be 25 mL/min/kg and the half-life came out at 1.35 h.
In data set [1] (dose 3 mg/kg), `CCNC(=O)Nc1nc2cc(-c3ccc(CO)nc3)cc(-c3ccccn3)c2s1` [Compound B, 1-Ethyl-3-[5-[6-(hydroxymethyl)-3-pyridyl]-7-(2-pyridyl)-1,3-benzothiazol-2-yl]urea, reference compound] displayed an AUC of 1800 ng·h/mL, a clearance of 28 mL/min/kg and a half-life of 1 h.
With `CC(=O)NC[C@H]1CN(c2ccc(N3CCOCC3)c(F)c2)C(=O)O1` [Linezolid, reference compound], the “survival of mice (in words)” value in the data set with S. pneumoniae ATCC6301 (dosed with 10 mg/kg) is on record as “dead by day six”.

The record behind these values is patent US8906902B2, “Antibacterial compounds” (Biota Europe Ltd., priority 2012, dated 2014).
